Measurements published in article PMC9250534, “Synthesis and direct assay of large macrocycle diversities by combinatorial late-stage modification at picomole scale” (Nature Communications, 2022).

Each compound was assayed against MDM2 (Homo sapiens, UniProt Q00987) (assay: MDM2 binding screen of Libraries 3 and 4: displacement of fluorescent probe F-M8 at 750 nM macrocycle). Conditions: Panel b, Library 3: 63 scaffolds combinatorially acylated with 15 carboxylic acids at 30 picomole scale; displacement of fluorescent peptide probe; macrocycle 750 nM.
MDM2, sequence (Q00987 whole entry): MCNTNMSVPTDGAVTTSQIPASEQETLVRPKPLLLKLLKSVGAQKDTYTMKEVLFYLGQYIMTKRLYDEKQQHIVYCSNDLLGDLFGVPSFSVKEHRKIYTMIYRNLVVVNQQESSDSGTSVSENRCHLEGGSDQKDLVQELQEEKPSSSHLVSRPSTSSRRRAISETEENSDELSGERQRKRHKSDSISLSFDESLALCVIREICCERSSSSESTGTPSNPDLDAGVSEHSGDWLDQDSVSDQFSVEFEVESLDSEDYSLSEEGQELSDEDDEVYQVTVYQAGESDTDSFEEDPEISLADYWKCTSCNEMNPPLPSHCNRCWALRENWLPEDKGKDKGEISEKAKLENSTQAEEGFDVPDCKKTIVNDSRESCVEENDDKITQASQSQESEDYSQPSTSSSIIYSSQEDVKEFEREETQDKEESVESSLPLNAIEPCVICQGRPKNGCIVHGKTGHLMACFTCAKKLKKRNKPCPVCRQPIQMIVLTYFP
Description: The cyclic peptide scaffolds required for Libraries 3 and 4 were synthesized as described for those used in Library 2. Due to the presence of many N-methylated amino acids which are more difficult to couple, 200 mM HOAt was applied together with HATU. The scaffolds were diluted to 2 mM in DMSO, and 15 nL were transferred using acoustic dispensing, followed by 15 nL DMSO containing carboxylic acids (40 mM, 20 equiv.), HBTU (40 mM) and DABCO (40 mM). After 6 h reaction at room temperature, 370 nL of DMSO was added to each well, followed by 5 μL of 100 mM Tris-Cl pH 7.4 containing 0.01% v/v Tween20, for quenching overnight.

Structure (SMILES)	fraction of fluorescent probe displaced
O=C(CCS(=O)(=O)c1ccccc1)NC[C@H]1NC(=O)C2(CC2)CNC(=O)CCSSCCNC(=O)[C@@H](Cc2c[nH]c3ccccc23)NC1=O [X-Amcp-D-Dap-D-Trp + Acid 114]	0.008
Cn1cc(CC2NC(=O)C(CNC(=O)C3CC3c3ccccc3)NC(=O)C3(CC3)CNC(=O)CCSSCCNC2=O)c2ccccc21 [X-Amcp-D-Dap-Me-Trp + Acid 105]	-0.002
Cn1cc(C[C@@H]2NC(=O)[C@@H](CNC(=O)c3ccc4ccccc4c3)NC(=O)C3(CC3)CNC(=O)CCSSCCNC2=O)c2ccccc21 [X-Amcp-D-Dap-Me-Trp + Acid 107]	0.018
Cn1cc(C[C@@H]2NC(=O)[C@@H](CNC(=O)/C=C/c3ccc(Cl)cc3)NC(=O)C3(CC3)CNC(=O)CCSSCCNC2=O)c2ccccc21 [X-Amcp-D-Dap-Me-Trp + Acid 108]	0.008
Cn1cc(C[C@@H]2NC(=O)[C@@H](CNC(=O)CCS(=O)(=O)c3ccccc3)NC(=O)C3(CC3)CNC(=O)CCSSCCNC2=O)c2ccccc21 [X-Amcp-D-Dap-Me-Trp + Acid 114]	0.015
CN1C(=O)[C@@H](CNC(=O)/C=C/c2ccncc2)NC(=O)C2(CC2)CNC(=O)CCSSCCNC(=O)[C@@H]1Cc1c[nH]c2ccccc12 [X-Amcp-D-Dap-NMe-Trp + Acid 106]	-0.015
CN1C(=O)[C@@H](CNC(=O)c2ccc3ccccc3c2)NC(=O)C2(CC2)CNC(=O)CCSSCCNC(=O)[C@@H]1Cc1c[nH]c2ccccc12 [X-Amcp-D-Dap-NMe-Trp + Acid 107]	0.031
CN1C(=O)[C@@H](CNC(=O)CCS(=O)(=O)c2ccccc2)NC(=O)C2(CC2)CNC(=O)CCSSCCNC(=O)[C@@H]1Cc1c[nH]c2ccccc12 [X-Amcp-D-Dap-NMe-Trp + Acid 114]	0.055
O=C1CCSSCCNC(=O)[C@H](Cc2c[nH]c3ccccc23)NC(=O)[C@@H](CNC(=O)c2ccc(Cl)cc2)NC(=O)C2(CC2)CN1 [X-Amcp-D-Dap-Trp + Acid 25]	-0.00533
O=C1CCSSCCNC(=O)[C@H](Cc2c[nH]c3ccccc23)NC(=O)[C@@H](CNC(=O)c2cccc(Oc3ccccc3)c2)NC(=O)C2(CC2)CN1 [X-Amcp-D-Dap-Trp + Acid 111]	0.008
O=C(/C=C/c1ccc2ccccc2c1)NC[C@H]1NC(=O)C2(CC2)CNC(=O)CCSSCCNC(=O)[C@H](Cc2c[nH]c3ccccc23)NC1=O [X-Amcp-D-Dap-Trp + Acid 112]	-0.00533
O=C1CCSSCCNC(=O)[C@H](Cc2cccc3ccccc23)NC(=O)[C@H](CNC(=O)c2ccc(Cl)cc2)NC(=O)C2(CC2)CN1 [X-Amcp-Dap-1-NaI + Acid 25]	0.008
O=C1CCSSCCNC(=O)[C@H](Cc2cccc3ccccc23)NC(=O)[C@H](CNC(=O)c2ccc3ccccc3c2)NC(=O)C2(CC2)CN1 [X-Amcp-Dap-1-NaI + Acid 107]	-0.00844
O=C(/C=C/c1ccc(OCc2ccccc2)cc1)NC[C@@H]1NC(=O)C2(CC2)CNC(=O)CCSSCCNC(=O)[C@H](Cc2cccc3ccccc23)NC1=O [X-Amcp-Dap-1-NaI + Acid 110]	0.00133
O=C(/C=C/c1ccncc1)NC[C@@H]1NC(=O)C2(CC2)CNC(=O)CCSSCCNC(=O)[C@H](Cc2ccc3ccccc3c2)NC1=O [X-Amcp-Dap-2-Nal + Acid 106]	-0.002
O=C1CCSSCCNC(=O)[C@H](Cc2ccc3ccccc3c2)NC(=O)[C@H](CNC(=O)c2ccc3ccccc3c2)NC(=O)C2(CC2)CN1 [X-Amcp-Dap-2-Nal + Acid 107]	0.031
O=C(/C=C/c1ccc(OCc2ccccc2)cc1)NC[C@@H]1NC(=O)C2(CC2)CNC(=O)CCSSCCNC(=O)[C@H](Cc2ccc3ccccc3c2)NC1=O [X-Amcp-Dap-2-Nal + Acid 110]	0.041
O=C1CCSSCCNC(=O)[C@H](Cc2ccc3ccccc3c2)NC(=O)[C@H](CNC(=O)c2cccc(Oc3ccccc3)c2)NC(=O)C2(CC2)CN1 [X-Amcp-Dap-2-Nal + Acid 111]	0.00133
O=C1CCSSCCNC(=O)[C@H](Cc2c[nH]c3cc(Cl)ccc23)NC(=O)[C@H](CNC(=O)c2ccc3ccccc3c2)NC(=O)C2(CC2)CN1 [X-Amcp-Dap-Cl-Trp + Acid 107]	0.00455
O=C(/C=C/c1ccc(Cl)cc1)NC[C@@H]1NC(=O)C2(CC2)CNC(=O)CCSSCCNC(=O)[C@H](Cc2c[nH]c3cc(Cl)ccc23)NC1=O [X-Amcp-Dap-Cl-Trp + Acid 108]	0.00133
O=C1CCSSCCNC(=O)[C@H](Cc2c[nH]c3cc(Cl)ccc23)NC(=O)[C@H](CNC(=O)c2cccc(Oc3ccccc3)c2)NC(=O)C2(CC2)CN1 [X-Amcp-Dap-Cl-Trp + Acid 111]	0.008
O=C(/C=C/c1ccc2ccccc2c1)NC[C@@H]1NC(=O)C2(CC2)CNC(=O)CCSSCCNC(=O)[C@H](Cc2c[nH]c3cc(Cl)ccc23)NC1=O [X-Amcp-Dap-Cl-Trp + Acid 112]	0.008

The next lines start with the values.

fraction of fluorescent probe displaced	Structure (SMILES)
-0.00533	O=C(/C=C/c1ccc(OCc2ccccc2)cc1)NC[C@H]1NC(=O)C2(CC2)CNC(=O)CCSSCCNC(=O)[C@@H](Cc2c[nH]c3ccccc23)NC1=O [X-Amcp-D-Dap-D-Trp + Acid 110]
-0.019	O=C1CCSSCCNC(=O)[C@@H](Cc2c[nH]c3ccccc23)NC(=O)[C@@H](CNC(=O)c2cccc(Oc3ccccc3)c2)NC(=O)C2(CC2)CN1 [X-Amcp-D-Dap-D-Trp + Acid 111]
-0.032	Cn1cc(C[C@@H]2NC(=O)[C@@H](CNC(=O)c3ccc(Cl)s3)NC(=O)C3(CC3)CNC(=O)CCSSCCNC2=O)c2ccccc21 [X-Amcp-D-Dap-Me-Trp + Acid 14]
-0.00533	Cn1cc(C[C@@H]2NC(=O)[C@@H](CNC(=O)c3ccc(Cl)cc3)NC(=O)C3(CC3)CNC(=O)CCSSCCNC2=O)c2ccccc21 [X-Amcp-D-Dap-Me-Trp + Acid 25]
0.00133	Cn1cc(C[C@@H]2NC(=O)[C@@H](CNC(=O)/C=C/c3ccc4ccccc4c3)NC(=O)C3(CC3)CNC(=O)CCSSCCNC2=O)c2ccccc21 [X-Amcp-D-Dap-Me-Trp + Acid 112]
0.015	Cn1cc(C[C@@H]2NC(=O)[C@@H](CNC(=O)C3COc4ccccc4O3)NC(=O)C3(CC3)CNC(=O)CCSSCCNC2=O)c2ccccc21 (stereo partly drawn) [X-Amcp-D-Dap-Me-Trp + Acid 115]
0.008	CN1C(=O)[C@@H](CNC(=O)c2ccc(Cl)s2)NC(=O)C2(CC2)CNC(=O)CCSSCCNC(=O)[C@@H]1Cc1c[nH]c2ccccc12 [X-Amcp-D-Dap-NMe-Trp + Acid 14]
0.00133	CN1C(=O)[C@@H](CNC(=O)c2cccc(Oc3ccccc3)c2)NC(=O)C2(CC2)CNC(=O)CCSSCCNC(=O)[C@@H]1Cc1c[nH]c2ccccc12 [X-Amcp-D-Dap-NMe-Trp + Acid 111]
-0.00533	O=C1CCSSCCNC(=O)[C@H](Cc2c[nH]c3ccccc23)NC(=O)[C@@H](CNC(=O)c2ccc(Cl)s2)NC(=O)C2(CC2)CN1 [X-Amcp-D-Dap-Trp + Acid 14]
-0.015	O=C1CCSSCCNC(=O)[C@H](Cc2c[nH]c3ccccc23)NC(=O)[C@@H](CNC(=O)C2CC2c2ccccc2)NC(=O)C2(CC2)CN1 (stereo partly drawn) [X-Amcp-D-Dap-Trp + Acid 105]
0.024	O=C1CCSSCCNC(=O)[C@H](Cc2c[nH]c3ccccc23)NC(=O)[C@@H](CNC(=O)c2ccc3ccccc3c2)NC(=O)C2(CC2)CN1 [X-Amcp-D-Dap-Trp + Acid 107]
0.015	O=C(/C=C/c1ccc(OCc2ccccc2)cc1)NC[C@H]1NC(=O)C2(CC2)CNC(=O)CCSSCCNC(=O)[C@H](Cc2c[nH]c3ccccc23)NC1=O [X-Amcp-D-Dap-Trp + Acid 110]
-0.019	O=C1CCSSCCNC(=O)[C@H](Cc2cccc3ccccc23)NC(=O)[C@H](CNC(=O)c2ccc(Cl)s2)NC(=O)C2(CC2)CN1 [X-Amcp-Dap-1-NaI + Acid 14]
0.008	O=C1CCSSCCNC(=O)[C@H](Cc2cccc3ccccc23)NC(=O)[C@H](CNC(=O)c2cccc(Oc3ccccc3)c2)NC(=O)C2(CC2)CN1 [X-Amcp-Dap-1-NaI + Acid 111]
-0.012	CC(Oc1cccc(Cl)c1)C(=O)NC[C@@H]1NC(=O)C2(CC2)CNC(=O)CCSSCCNC(=O)[C@H](Cc2cccc3ccccc23)NC1=O (stereo partly drawn) [X-Amcp-Dap-1-NaI + Acid 113]
-0.00533	O=C(CCS(=O)(=O)c1ccccc1)NC[C@@H]1NC(=O)C2(CC2)CNC(=O)CCSSCCNC(=O)[C@H](Cc2cccc3ccccc23)NC1=O [X-Amcp-Dap-1-NaI + Acid 114]
0.00133	O=C1CCSSCCNC(=O)[C@H](Cc2cccc3ccccc23)NC(=O)[C@H](CNC(=O)C2COc3ccccc3O2)NC(=O)C2(CC2)CN1 (stereo partly drawn) [X-Amcp-Dap-1-NaI + Acid 115]
-0.034	O=C1CCSSCCNC(=O)[C@H](Cc2ccc3ccccc3c2)NC(=O)[C@H](CNC(=O)C2CC2c2ccccc2)NC(=O)C2(CC2)CN1 (stereo partly drawn) [X-Amcp-Dap-2-Nal + Acid 105]
0.008	O=C(/C=C/c1ccc(Cl)cc1)NC[C@@H]1NC(=O)C2(CC2)CNC(=O)CCSSCCNC(=O)[C@H](Cc2ccc3ccccc3c2)NC1=O [X-Amcp-Dap-2-Nal + Acid 108]
0.015	O=C(/C=C/c1ccc2ccccc2c1)NC[C@@H]1NC(=O)C2(CC2)CNC(=O)CCSSCCNC(=O)[C@H](Cc2ccc3ccccc3c2)NC1=O [X-Amcp-Dap-2-Nal + Acid 112]
